Assay results: ChEMBL document CHEMBL1147535, “Biaryl amide glucagon receptor antagonists” (Bioorg Med Chem Lett, 2004)

Key:
[1] = molecular target: Glucagon receptor (Homo sapiens, UniProt P47871); test: In vitro binding affinity against human glucagon receptor (h-GlucR) was determined
[2] = molecular target: Adenylate cyclase; test: In vitro inhibitory activity against glucagon induced human adenylate cyclase; format: protein assay
[3] = tested on: Rattus norvegicus; test: Percent reduction of glucagon induced glucose excursion by the compound after an i.v. dose of 50 mg/kg to rats; format: functional; conditions: route intravenous
[4] = molecular target: Adenylate cyclase; test: In vitro inhibitory activity against glucagon induced monkey adenylate cyclase; format: protein assay, Cercopithecidae
[5] = Oral bioavailability; format: ADME, organism-based; conditions: eutheria, in vivo

Chain of Glucagon receptor (P47871 whole entry): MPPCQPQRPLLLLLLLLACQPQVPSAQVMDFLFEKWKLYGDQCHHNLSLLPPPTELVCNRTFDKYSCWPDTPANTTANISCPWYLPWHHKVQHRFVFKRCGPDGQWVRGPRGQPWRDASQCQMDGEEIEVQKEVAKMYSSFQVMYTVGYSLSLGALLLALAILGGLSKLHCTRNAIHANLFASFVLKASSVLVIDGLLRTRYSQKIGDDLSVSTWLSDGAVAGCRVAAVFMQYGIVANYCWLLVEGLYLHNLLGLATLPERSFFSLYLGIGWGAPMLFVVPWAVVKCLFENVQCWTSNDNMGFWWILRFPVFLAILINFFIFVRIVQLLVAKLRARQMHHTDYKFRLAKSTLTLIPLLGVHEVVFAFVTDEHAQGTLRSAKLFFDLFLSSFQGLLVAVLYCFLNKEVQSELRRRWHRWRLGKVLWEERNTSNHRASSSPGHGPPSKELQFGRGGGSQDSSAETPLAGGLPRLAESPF

Row | Structure (SMILES) | Ki [1] [nM] | Ki [2] [nM] | Reduction [3] [%] | Ki [4] [nM] | bioavailability [5] [%]
1 | CC(C)(C)c1ccc(C(Cc2ccc(C(=O)NCCC(=O)O)cc2)C(=O)Nc2ccc(CO)cc2)cc1 (stereo not given) | 29 | 1000 | – | – | –
2 | Cc1ccc(N2CCN(C(=O)C(Cc3ccc(C(=O)NCCC(=O)O)cc3)c3ccc(C(C)(C)C)cc3)CC2)cc1 (stereo not given) | 400 | > 2000 | – | – | –
3 | CC(C)(C)c1ccc(C(Oc2ccc(C(=O)NCC(O)C(=O)O)cc2)C(=O)Nc2ccc(-c3ccccc3)cc2)cc1 (stereo not given) | 112 | > 2000 | – | – | –
4 | CC(C)(C)c1ccc(C(Cc2ccc(C(=O)NCCC(=O)O)cc2)C(=O)Nc2cnc3ccccc3c2)cc1 (stereo not given) | 11 | 610 | – | – | –
5 | CCCCCCC(Oc1ccc(C(=O)NCCC(=O)O)cc1)C(=O)Nc1ccc(-c2ccc(Cl)cc2Cl)cc1 (stereo not given) | 6 | 14 | – | – | –
6 | CC(C)(C)c1ccc(C(Cc2ccc(C(=O)NCCC(=O)O)cc2)C(=O)Nc2ccc(COC(F)(F)F)cc2)cc1 (stereo not given) | 5000 | > 2000 | – | – | –
7 | CCc1cccc(NC(=O)C(Cc2ccc(C(=O)NCCC(=O)O)cc2)c2ccc(C(C)(C)C)cc2)c1 (stereo not given) | 80 | > 2000 | – | – | –
8 | CC(C)(C)c1ccc(C(Cc2ccc(C(=O)NCCC(=O)O)cc2)C(=O)Nc2ccc(-c3ccc(Cl)cc3Cl)cc2)cc1 (stereo not given) | 6 | 33 | – | – | –
9 | CCN1CCN(C(=O)C(Cc2ccc(C(=O)NCCC(=O)O)cc2)c2ccc(C(C)(C)C)cc2)CC1 (stereo not given) | > 5000 | > 2000 | – | – | –
10 | CC(C)(C)c1ccc(C(Cc2ccc(C(=O)NCCC(=O)O)cc2)C(=O)Nc2ccc(-c3ccccc3)cc2)cc1 (stereo not given) | 11 | 300 | – | – | –
11 | CC(C)(C)c1ccc(C(Cc2ccc(C(=O)NCCC(=O)O)cc2)C(=O)Nc2ccc(N3CCCCC3)cc2)cc1 (stereo not given) | 73 | > 2000 | – | – | –
12 | CCCCCCC(Oc1ccc(C(=O)NCCC(=O)O)cc1)C(=O)Nc1ccc(-c2cc3ccccc3o2)cc1 (stereo not given) | 3 | 17 | – | – | –
13 | CC(C)(C)c1ccc(C(Oc2ccc(C(=O)Nc3nn[nH]n3)cc2)C(=O)Nc2ccc(-c3ccccc3)cc2)cc1 (stereo not given) | 66 | 317 | – | – | –
14 | CCc1ccc(NC(=O)C(Cc2ccc(C(=O)NCCC(=O)O)cc2)c2ccc(C(C)(C)C)cc2)cc1 (stereo not given) | 26 | > 2000 | – | – | –
15 | CC(C)(C)[C@H]1CC[C@H](N(Cc2ccc(C(=O)NCCC(=O)O)cc2)C(=O)Nc2ccc(OC(F)(F)F)cc2)CC1 | 63 | 254 | – | – | –
16 | CC(C)(C)c1ccc(C(Cc2ccc(C(=O)NCCC(=O)O)cc2)C(=O)Nc2ccc(-n3cccn3)cc2)cc1 (stereo not given) | 70 | > 2000 | – | – | –
17 | CC(C)(C)c1ccc(C(Cc2ccc(C(=O)NCCC(=O)O)cc2)C(=O)Nc2ccc(-c3cc4ccccc4o3)cc2)cc1 (stereo not given) | 4 | 29 | 50 | 69 | < 5
18 | CC(C)(C)c1ccc(C(Cc2ccc(C(=O)NCCC(=O)O)cc2)C(=O)Nc2ccc(OC(F)(F)F)cc2)cc1 (stereo not given) | 51 | 110 | – | – | –
19 | CC(C)(C)c1ccc(C(Oc2ccc(C(=O)NCC(F)C(=O)O)cc2)C(=O)Nc2ccc(-c3ccccc3)cc2)cc1 (stereo not given) | 26 | > 2000 | – | – | –
20 | CC(C)(C)c1ccc(C(Oc2ccc(C(=O)NCCC(=O)O)cc2)C(=O)Nc2ccc(-c3ccccc3)cc2)cc1 (stereo not given) | 9 | 144 | – | – | –
21 | CCCCCCC(Cc1ccc(C(=O)NCCC(=O)O)cc1)C(=O)Nc1ccc(-c2cc3ccccc3o2)cc1 (stereo not given) | 6 | 20 | – | – | –
